Laboratory results as given in patent US20260265238A1, “COMPOUNDS AND PHARMACEUTICAL COMPOSITIONS THAT DEGRADE SWI/SNF-RELATED MATRIX-ASSOCIATED ACTIN-DEPENDENT REGULATOR OF CHROMATIN SUBFAMILY A” (Plexium, Inc., priority 2023, published 2026).

What was measured:
[1] = target: T1, SMARCA4-HiBiT HeLa cells (protein which is expressed from the SMARCA4 gene) (Homo sapiens, UniProt P51532); test: SMARCA4 degradation assay (HiBiT-fusion HeLa cell line, 24 h, luminescence); assay type: cell-based
T1 construct: protein which is expressed from the SMARCA2 and SMARCA4 genes; host or cells: HeLa (SMARCA4-HiBiT engineered line)
T1 sequence (P51532 whole entry, the tested form may be a part): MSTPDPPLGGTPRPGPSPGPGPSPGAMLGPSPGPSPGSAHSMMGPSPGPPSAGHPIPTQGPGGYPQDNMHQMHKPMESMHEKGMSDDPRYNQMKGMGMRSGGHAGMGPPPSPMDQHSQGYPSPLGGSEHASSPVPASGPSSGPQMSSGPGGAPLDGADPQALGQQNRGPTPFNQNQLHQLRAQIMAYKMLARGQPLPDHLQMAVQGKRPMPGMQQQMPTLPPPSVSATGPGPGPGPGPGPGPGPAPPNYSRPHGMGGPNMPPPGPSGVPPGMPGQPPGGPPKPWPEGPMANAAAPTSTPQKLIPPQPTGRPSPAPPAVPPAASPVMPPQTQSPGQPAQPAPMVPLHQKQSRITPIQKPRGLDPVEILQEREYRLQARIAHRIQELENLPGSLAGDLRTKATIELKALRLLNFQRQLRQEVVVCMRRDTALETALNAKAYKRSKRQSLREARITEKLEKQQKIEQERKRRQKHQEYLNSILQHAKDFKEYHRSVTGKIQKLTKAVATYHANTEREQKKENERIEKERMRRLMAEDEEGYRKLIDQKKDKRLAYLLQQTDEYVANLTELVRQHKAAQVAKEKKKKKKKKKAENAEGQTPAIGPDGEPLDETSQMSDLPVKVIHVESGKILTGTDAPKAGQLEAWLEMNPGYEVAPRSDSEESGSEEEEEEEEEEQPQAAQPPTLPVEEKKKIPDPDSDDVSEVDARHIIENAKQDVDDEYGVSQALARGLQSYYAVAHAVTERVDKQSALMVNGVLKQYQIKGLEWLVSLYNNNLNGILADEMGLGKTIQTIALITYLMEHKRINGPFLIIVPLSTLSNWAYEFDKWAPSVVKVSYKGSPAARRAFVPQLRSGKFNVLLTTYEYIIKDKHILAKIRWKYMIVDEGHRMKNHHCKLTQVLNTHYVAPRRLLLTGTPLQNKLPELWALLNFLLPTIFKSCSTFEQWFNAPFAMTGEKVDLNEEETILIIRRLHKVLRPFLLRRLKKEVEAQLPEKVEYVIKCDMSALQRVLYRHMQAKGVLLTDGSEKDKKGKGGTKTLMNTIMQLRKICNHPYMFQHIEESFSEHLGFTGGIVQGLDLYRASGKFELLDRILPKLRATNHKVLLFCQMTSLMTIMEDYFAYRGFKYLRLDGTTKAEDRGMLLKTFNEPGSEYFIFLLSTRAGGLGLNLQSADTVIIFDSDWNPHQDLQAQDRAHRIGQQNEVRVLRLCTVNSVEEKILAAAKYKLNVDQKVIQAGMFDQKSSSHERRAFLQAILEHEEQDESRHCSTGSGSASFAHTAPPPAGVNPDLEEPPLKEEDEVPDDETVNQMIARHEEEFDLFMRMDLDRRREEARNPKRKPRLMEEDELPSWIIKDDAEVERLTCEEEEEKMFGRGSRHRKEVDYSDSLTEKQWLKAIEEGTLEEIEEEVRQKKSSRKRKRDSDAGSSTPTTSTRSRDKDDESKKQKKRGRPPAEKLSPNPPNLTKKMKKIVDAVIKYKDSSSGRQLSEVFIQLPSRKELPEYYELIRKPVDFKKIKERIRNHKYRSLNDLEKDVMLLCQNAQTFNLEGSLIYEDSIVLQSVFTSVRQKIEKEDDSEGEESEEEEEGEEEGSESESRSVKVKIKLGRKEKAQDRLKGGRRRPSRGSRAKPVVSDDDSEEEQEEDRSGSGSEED
Method: (§1) SMARCA2 and SMARCA4 Degradation Assay
(§2) Degradation of protein which is expressed from the SMARCA2 and SMARCA4 genes was monitored using engineered HiBiT-fusion HeLa cell lines from Promega. In brief, 384-well white opaque plates (Greiner) were seeded with SMARCA2-HiBiT or SMARCA4-HiBiT HeLa cells at 8,000 cells/well and incubated overnight at 37° C. to allow cell attachment. After overnight incubation, test compounds were added in a 10-point dilution series (typically 10 μM to 300 pM) using a TECAN D300e Digital Dispenser, and plates were subsequently incubated for 24 hours at 37° C. 24-hours post-treatment, protein levels were quantified with the addition of HiBiT lytic buffer, LgBiT protein, and HiBiT substrate, according to manufacturer's specifications. Plates were incubated on an orbital plate shaker for 10 minutes at room temperature. Resulting luminescent values were read out using a ClarioStar plate reader and used to construct dose-response curves and calculation of degradation DC50s (GraphPad Prism).
(§3) Activity of the tested compounds is provided in Table 4 below as follows: A=DC50<0.050 μM; B=0.05 μM<DC50<0.50 μM; C=<0.5 μM<DC50<5.0 μM; D=DC50>5.0 μM. For SMARCA2 and SMARCA4 degradation activity @1 μM, +++=>70%; ++=30-70%; +=<30%.

[2] = target: T2, SMARCA2-HiBiT HeLa cells (protein which is expressed from the SMARCA2 gene) (Homo sapiens, UniProt P51531); test: SMARCA2 degradation assay (HiBiT-fusion HeLa cell line, 24 h, luminescence); assay type: cell-based
T2 construct: protein which is expressed from the SMARCA2 and SMARCA4 genes; host or cells: HeLa (SMARCA2-HiBiT engineered line)
T2 sequence (P51531 whole entry, the tested form may be a part): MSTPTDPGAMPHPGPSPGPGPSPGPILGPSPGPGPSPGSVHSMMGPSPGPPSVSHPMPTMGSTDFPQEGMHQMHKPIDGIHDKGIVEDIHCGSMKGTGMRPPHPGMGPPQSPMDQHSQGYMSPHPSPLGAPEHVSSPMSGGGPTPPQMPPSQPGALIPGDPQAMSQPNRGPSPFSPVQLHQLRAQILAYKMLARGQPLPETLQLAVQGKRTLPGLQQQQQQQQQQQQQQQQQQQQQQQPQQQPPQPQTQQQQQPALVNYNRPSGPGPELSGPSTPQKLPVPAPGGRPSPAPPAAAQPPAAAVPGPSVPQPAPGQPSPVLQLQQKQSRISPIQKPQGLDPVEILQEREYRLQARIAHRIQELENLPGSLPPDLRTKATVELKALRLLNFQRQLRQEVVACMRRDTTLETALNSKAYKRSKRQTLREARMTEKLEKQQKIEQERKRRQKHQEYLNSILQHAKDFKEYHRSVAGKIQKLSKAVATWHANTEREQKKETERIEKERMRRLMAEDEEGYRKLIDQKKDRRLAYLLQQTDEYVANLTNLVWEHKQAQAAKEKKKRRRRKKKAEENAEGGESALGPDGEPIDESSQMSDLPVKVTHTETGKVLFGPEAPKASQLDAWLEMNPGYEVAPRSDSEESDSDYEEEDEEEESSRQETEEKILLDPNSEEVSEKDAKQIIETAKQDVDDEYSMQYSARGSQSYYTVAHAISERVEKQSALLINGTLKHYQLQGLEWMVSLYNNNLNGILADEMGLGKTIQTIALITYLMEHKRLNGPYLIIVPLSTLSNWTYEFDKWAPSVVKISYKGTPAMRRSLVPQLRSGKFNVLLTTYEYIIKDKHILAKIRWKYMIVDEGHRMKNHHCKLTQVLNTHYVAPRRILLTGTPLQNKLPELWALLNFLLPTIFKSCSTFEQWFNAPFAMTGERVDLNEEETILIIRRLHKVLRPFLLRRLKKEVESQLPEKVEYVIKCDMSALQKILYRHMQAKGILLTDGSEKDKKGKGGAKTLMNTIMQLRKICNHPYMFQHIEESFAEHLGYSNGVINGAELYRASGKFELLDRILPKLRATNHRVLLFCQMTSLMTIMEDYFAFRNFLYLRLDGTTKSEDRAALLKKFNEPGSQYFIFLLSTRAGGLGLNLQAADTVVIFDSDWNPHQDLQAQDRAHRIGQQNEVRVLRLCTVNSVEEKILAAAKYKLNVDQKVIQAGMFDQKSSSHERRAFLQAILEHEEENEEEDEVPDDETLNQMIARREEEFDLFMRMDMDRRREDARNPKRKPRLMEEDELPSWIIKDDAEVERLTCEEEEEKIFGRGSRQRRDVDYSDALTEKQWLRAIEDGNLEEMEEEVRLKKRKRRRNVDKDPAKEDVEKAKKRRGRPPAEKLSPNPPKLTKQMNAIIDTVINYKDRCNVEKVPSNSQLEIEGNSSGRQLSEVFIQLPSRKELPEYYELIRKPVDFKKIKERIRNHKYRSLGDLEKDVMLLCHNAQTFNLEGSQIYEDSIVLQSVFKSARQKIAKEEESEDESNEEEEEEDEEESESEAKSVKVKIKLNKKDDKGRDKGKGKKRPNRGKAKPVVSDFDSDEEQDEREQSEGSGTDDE
Method: as §1, §2, §3

SMILES	DC50 [1] [µM]	inhibition at 1 µM ([1]; @ 1 μM) [%]	DC50 [2] [µM]	SMARCA2 % Degradation @ 1 μM ([2]; @ 1 μM)	inhibition at 1 µM ([1]; 1 μM) [%]	SMARCA2 % Degradation @ 1 μM ([2]; 1 μM)
CC(C)(C)OC(=O)NCC#Cc1nccc(NC2CN(c3cc(-c4ccccc4O)nnc3N)C2)n1 [Compound P-307, 4-(3-{2-[3-(tert-butoxycarbonylamino)-1-propynyl]-4-pyrimidinylamino}-1-azetidinyl)-6-(o-hydroxyphenyl)-3-pyridazinamine]	0.05 to 0.5	30 to 70	0.05 to 0.5	++ (++=30-70%)		
Nc1nnc(-c2ccccc2O)cc1N1CC2CCC(C1)N2c1ccnc(C#CCCNC(=O)c2cc3ncccn3n2)n1 [Compound P-96, N-(4-(4-(3-(3-amino-6-(2-hydroxyphenyl)pyridazin-4-yl)-3,8-diazabicyclo[3.2.1]octan-8-yl)pyrimidin-2-yl)but-3-yn-1-yl)pyrazolo[1,5-a]pyrimidine-2-carboxamide]	0.05 to 0.5	> 70	0.5 to 5	++ (++=30-70%)		
Nc1nnc(-c2ccccc2O)cc1N1CCCN(c2ccnc(C#CCN3CC4CCC(C3)O4)n2)CC1 [Compound P-315, 0-{6-amino-5-[4-(2-{3-(8-oxa-3-azabicyclo[3.2.1]oct-3-yl)-1-propynyl}-4-pyrimidinyl)-1,4-diazepan-1-yl]-3-pyridazinyl} phenol]	0.5 to 5	30 to 70	0.05 to 0.5	++ (++=30-70%)		
C[C@@H]1CCN(c2cc(-c3ccccc3O)nnc2N)CCN1c1nc(C#CCN2CCCC2=O)ncc1F [Compound P-203, 1-[3-(4-{(R)-4-[3-amino-6-(o-hydroxyphenyl)-4-pyridazinyl]-7-methyl-1,4-diazepan-1-y1}-5-fluoro-2-pyrimidinyl)-2-propynyl]-2-pyrrolidinone]	0.05 to 0.5	30 to 70	0.05 to 0.5	++ (++=30-70%)		
C[C@@H]1CCN(c2cc(-c3ccccc3O)nnc2N)CCN1c1cc(C#CCn2ccnc2)ncc1Cl [Compound P-408, 0-{5-[(R)-4-{5-chloro-2-[3-(1-imidazolyl)-1-propynyl]-4-pyridyl}-5-methyl-1,4-diazepan-1-yl]-6-amino-3-pyridazinyl} phenol]	0.05 to 0.5		0.05 to 0.5		30 to 70	++ (++=30-70%)
C[C@H]1CN(c2ccnc(C#CCn3cccn3)n2)CCN1c1cc(-c2ccccc2O)nnc1N [Compound P-329, 0-{5-[(S)-2-methyl-4-{2-[3-(1-pyrazolyl)-1-propynyl]-4-pyrimidinyl}-1-piperazinyl]-6-amino-3-pyridazinyl} phenol]	0.05 to 0.5	< 30	0.05 to 0.5	++ (++=30-70%)		
C[C@@H]1CCN(c2cc(-c3ccccc3O)nnc2N)CCN1c1ccnc(C#CCN2CC(C#N)C2)n1 [Compound P-215, 1-[3-(4-{ (R)-4-[3-amino-6-(o-hydroxyphenyl)-4-pyridazinyl]-7-methyl-1,4-diazepan-1-yl}-2-pyrimidinyl)-2-propynyl]-3-azetidinecarbonitrile]	0.05 to 0.5	30 to 70	0.05 to 0.5	+++ (+++=>70%)		
C[C@@H]1CCN(c2cc(-c3ccccc3O)nnc2N)CCN1c1cc(C#CCN(C)C)ncc1Cl [Compound P-409, 0-{5-[(R)-4-{5-chloro-2-[3-(dimethylamino)-1-propynyl]-4-pyridyl}-5-methyl-1,4-diazepan-1-yl]-6-amino-3-pyridazinyl}phenol]	0.05 to 0.5		0.05 to 0.5			+ (+=<30%)
C[C@@H]1CCN(c2cc(-c3ccccc3O)nnc2N)CCN1c1ccc(C#N)c(C#CCN2CCC(F)(F)CC2)n1 [Compound P-416, 6-{(R)-4-[3-amino-6-(o-hydroxyphenyl)-4-pyridazinyl]-7-methyl-1,4-diazepan-1-yl}-2-[3-(4,4-difluoro-1-piperidyl)-1-propynyl]nicotinonitrile]	0.05 to 0.5		0.05 to 0.5		> 70	+++ (+++=>70%)
C[C@@H]1CCN(c2cc(-c3ccccc3O)nnc2N)CCN1c1ccnc(C#CCN2CC3CC(C2)O3)n1 [Compound P-179, o-{5-[(R)-5-methyl-4-(2-{3-(6-oxa-3-azabicyclo[3.1.1]hept-3-yl)-1-propynyl}-4-pyrimidinyl)-1,4-diazepan-1-yl]-6-amino-3-pyridazinyl}phenol]	0.05 to 0.5	30 to 70	0.05 to 0.5	+++ (+++=>70%)		
Nc1nnc(-c2ccccc2O)cc1N1CC2CCC(C1)N2c1ccnc(C#CCn2cccn2)n1 [Compound P-133, 2-(5-(8-(2-(3-(1H-pyrazol-1-yl)prop-1-yn-1-yl)pyrimidin-4-yl)-3,8-diazabicyclo[3.2.1]octan-3-yl)-6-aminopyridazin-3-yl)phenol]	0.05 to 0.5	30 to 70	0.05 to 0.5	++ (++=30-70%)		
C[C@@H]1CCN(c2cc(-c3ccccc3O)nnc2N)CCN1c1cc(C#CCN(C)C)ncc1F [Compound P-419, 0-{5-[(R)-4-{2-[3-(dimethylamino)-1-propynyl]-5-fluoro-4-pyridy1}-5-methyl-1,4-diazepan-1-yl]-6-amino-3-pyridazinyl}phenol]	0.05 to 0.5		0.05 to 0.5		< 30	+ (+=<30%)
CC1(F)CCN(CC#Cc2nccc(N3C4CCC3CN(c3cc(-c5ccccc5O)nnc3N)C4)n2)C1 (centres unmarked) [Compound P-194, o-[6-amino-5-(8-{2-[3-(3-fluoro-3-methyl-1-pyrrolidinyl)-1-propynyl]-4-pyrimidinyl}-3,8-diazabicyclo[3.2.1]oct-3-yl)-3-pyridazinyl]phenol]	< 0.05	30 to 70	< 0.05	++ (++=30-70%)		
CC(C)(C)OC(=O)NC/C=C/c1nccc(N2CCCN(c3cc(-c4ccccc4O)nnc3N)CC2)n1 [Compound P-114, tert-butyl (E)-(3-(4-(4-(3-amino-6-(2-hydroxyphenyl)pyridazin-4-yl)-1,4-diazepan-1-yl)pyrimidin-2-yl)allyl)carbamate]	0.05 to 0.5	30 to 70	0.05 to 0.5	+++ (+++=>70%)		

Continued, values first:

DC50 [1] [µM]	inhibition at 1 µM ([1]; @ 1 μM) [%]	DC50 [2] [µM]	SMARCA2 % Degradation @ 1 μM ([2]; @ 1 μM)	inhibition at 1 µM ([1]; 1 μM) [%]	SMARCA2 % Degradation @ 1 μM ([2]; 1 μM)	SMILES
0.05 to 0.5	30 to 70	0.05 to 0.5	++ (++=30-70%)			Nc1nnc(-c2ccccc2O)cc1N1CCCN(c2ccnc(C#CC3CCOC3)n2)CC1 (centres unmarked) [Compound P-340, 0-[6-amino-5-(4-{2-[2-(tetrahydro-3-furyl)ethynyl]-4-pyrimidinyl}-1,4-diazepan-1-yl)-3-pyridazinyl]phenol]
0.05 to 0.5	30 to 70	0.05 to 0.5	++ (++=30-70%)			Nc1nnc(-c2ccccc2O)cc1N1CCN(c2ccnc(C#CCNC(=O)c3ccc4ccccc4n3)n2)CC1 [Compound P-64, N-(3-(4-(4-(3-amino-6-(2-hydroxyphenyl)pyridazin-4-yl)piperazin-1-yl)pyrimidin-2-yl)prop-2-yn-1-yl)quinoline-2-carboxamide]
0.5 to 5	< 30	0.5 to 5	+ (+=<30%)			NCC#Cc1nccc(N2CCC3(CC2)CCN(c2cc(-c4ccccc4O)nnc2N)CC3)n1 [Compound P-90, 2-(6-amino-5-(9-(2-(3-aminoprop-1-yn-1-yl)pyrimidin-4-yl)-3,9-diazaspiro[5.5]undecan-3-yl)pyridazin-3-yl)phenol]
> 5		0.05 to 0.5	++ (++=30-70%)			Nc1nnc(-c2ccccc2O)cc1N1CCN(c2ccnc(C#CCNC(=O)c3cc4n(n3)CCC4)n2)CC1 [Compound P-59, N-(3-(4-(4-(3-amino-6-(2-hydroxyphenyl)pyridazin-4-yl)piperazin-1-yl)pyrimidin-2-yl)prop-2-yn-1-yl)-5,6-dihydro-4H-pyrrolo[1,2-b]pyrazole-2-carboxamide]
0.05 to 0.5	30 to 70	0.05 to 0.5				Nc1nnc(-c2ccccc2O)cc1N1CCCN(c2ccnc(C#CCn3cccn3)n2)CC1 [Compound P-149, 2-(5-(4-(2-(3-(1H-pyrazol-1-yl)prop-1-yn-1-yl)pyrimidin-4-yl)-1,4-diazepan-1-yl)-6-aminopyridazin-3-yl)phenol]
0.05 to 0.5	30 to 70	0.05 to 0.5	++ (++=30-70%)			COCc1cc(N2CCCN(c3cc(-c4ccccc4O)nnc3N)CC2)nc(C#CCNC(=O)c2nn(C)c(C)c2C)n1 [Compound P-126, N-(3-(4-(4-(3-amino-6-(2-hydroxyphenyl)pyridazin-4-yl)-1,4-diazepan-1-yl)-6-(methoxymethyl)pyrimidin-2-yl)prop-2-yn-1-yl)-1,4,5-trimethyl-1H-pyrazole-3-carboxamide]
